Laboratory results as given in patent US6991794B1, “Progenitor cell preservation factors and methods for and products of their use” (ImClone Systems Incorporated, priority 1997, dated 2006).

Tests used:
[1] = single dose 150 mg/kg (Lerner and Harrison); cited from earlier work
[2] = murine 5-FU chemoprotection model; conditions: 150 mg/kg intraperitoneally
Protocol: Administration of a second dose of 5-FU (also at 150 mg/kg) 3-7 days after the initial dose killed those stem cells and progenitors recruited into S-phase in response to the first treatment of 5-FU (Lerner and Harrison, supra).
Since FRIL and cytokines act on progenitors in the same concentration range (ng/ml), this pretreatment dose regimen was used to test whether Dl-FRIL can protect mice from 5-FU administered at 2 intervals in the first week: 5-FU (150 mg/kg) was injected at day 0 and then a second dose (also at 150 mg/kg) was injected either on day 3 (d0/3 dose interval) or day 5 (d0/5 dose interval).
Weight-matched BALB/c mice (10 mice/group) were injected intravenously with either with 0.2 mL of Dl-FRIL (500 mg/mL) or 0.2 mL of HBSS daily for 4 days. Two hours after the final treatment of Dl-FRIL, mice were injected intraperitoneally with 5-FU (150 mg/kg). Groups of mice received a second dose of 5-FU (150 mg/kg) at either day 3 or day 5.

Dl-FRIL = target: T1, Dl-FRIL (Lablab purpureus, UniProt Q9ZTA9); conditions: Mo et al., Glycobiology 1999; cited from earlier work
T1 sequence (Q9ZTA9 9-272): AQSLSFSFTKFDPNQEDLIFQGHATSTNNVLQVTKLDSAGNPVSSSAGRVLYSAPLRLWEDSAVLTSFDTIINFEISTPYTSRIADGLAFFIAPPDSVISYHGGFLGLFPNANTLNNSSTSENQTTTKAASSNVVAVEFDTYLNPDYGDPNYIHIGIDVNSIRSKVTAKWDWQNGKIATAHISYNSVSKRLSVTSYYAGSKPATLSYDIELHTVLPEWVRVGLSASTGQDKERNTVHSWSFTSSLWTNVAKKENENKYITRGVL
T1 sequence (Q9ZTA9 125-272 limits assumed): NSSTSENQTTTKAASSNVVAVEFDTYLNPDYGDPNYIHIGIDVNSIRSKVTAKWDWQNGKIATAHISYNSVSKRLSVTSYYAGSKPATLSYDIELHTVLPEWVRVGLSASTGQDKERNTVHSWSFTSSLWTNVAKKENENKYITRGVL

[3] = target: T2, murine extracellular domain of the Flt3 receptor fused to the transmembrane and intracellular domains of the human Fms (UniProt P07333+Q00342, A795S/A899S/C564L/C654D/C793H/C831G/D601N/D652H/D673E/D898N/DEL545-556/DEL576-597/DEL711-780/E609N/E612Q/E649S/E789R/E803A/E806A/E865D/F571P/F692T/F788L/F807S/G637D/G866C/H565Y/H671Q/H824N/I560L/I563L/I633L/I640L/I867V/I870V/INS558VACMSIMALLLL/INS573QVRWKII/INS599GNSYTFIDPTQLP/INS709AMLGPSLSPGQDPEGGVDYKNIHLEKKYVRRDSGFSSQGVDTYVEMRPVSTSSNDSFSEQDLD/K569Q/K650T/K800Q/K826H/K871Q/L602E/L684H/L690V/L783G/L815V/L840M/L863I/M626V/M665I/N627E/N784R/N900K/P896L/Q570K/Q641K/R572K/R624K/R708A/R848K/S619A/S634G/S639V/S653A/S685G/S706R/S809N/S841N/S844N/T636E/T667S/T787E/V561L/V616T/V638A/V785P/V811I/V822L/V828A/V846I/V889L/Y631F/Y689L/Y703F/Y796S); experiment: mFlt3/Fms 3T3 biological screening assay (XTT); type: cell-based
T2 construct: consisting of the murine extracellular domain of the Flt3 receptor fused to the transmembrane and intracellular domains of the human Fms; expressed in transfected cells; host or cells: NIH 3T3 (mFlt3/Fms 3T3 cell line, provided by Dr. Ihor Lemischka)
T2 sequence (Q00342+P07333 with tags, fused parts or gaps Q00342:DEL545-556/Q00342:INS558VACMSIMALLLL/Q00342:I560L/Q00342:V561L/Q00342:I563L/Q00342:C564L/Q00342:H565Y/Q00342:K569Q/Q00342:Q570K/Q00342:F571P/Q00342:R572K/Q00342:INS573QVRWKII/Q00342:DEL576-597/Q00342:INS599GNSYTFIDPTQLP/Q00342:D601N/Q00342:L602E/Q00342:E609N/Q00342:E612Q/Q00342:V616T/Q00342:S619A/Q00342:R624K/Q00342:M626V/Q00342:N627E/Q00342:Y631F/Q00342:I633L/Q00342:S634G/Q00342:T636E/Q00342:G637D/Q00342:V638A/Q00342:S639V/Q00342:I640L/Q00342:Q641K/Q00342:E649S/Q00342:K650T/Q00342:D652H/Q00342:S653A/Q00342:C654D/Q00342:M665I/Q00342:T667S/Q00342:H671Q/Q00342:D673E/Q00342:L684H/Q00342:S685G/Q00342:Y689L/Q00342:L690V/Q00342:F692T/Q00342:Y703F/Q00342:S706R/Q00342:R708A/Q00342:INS709AMLGPSLSPGQDPEGGVDYKNIHLEKKYVRRDSGFSSQGVDTYVEMRPVSTSSNDSFSEQDLD/Q00342:DEL711-780/Q00342:L783G/Q00342:N784R/Q00342:V785P/Q00342:T787E/Q00342:F788L/Q00342:E789R/Q00342:C793H/Q00342:A795S/Q00342:Y796S/Q00342:K800Q/Q00342:E803A/Q00342:E806A/Q00342:F807S/Q00342:S809N/Q00342:V811I/Q00342:L815V/Q00342:V822L/Q00342:H824N/Q00342:K826H/Q00342:V828A/Q00342:C831G/Q00342:L840M/Q00342:S841N/Q00342:S844N/Q00342:V846I/Q00342:R848K/Q00342:L863I/Q00342:E865D/Q00342:G866C/Q00342:I867V/Q00342:I870V/Q00342:K871Q/Q00342:V889L/Q00342:P896L/Q00342:D898N/Q00342:A899S/Q00342:N900K): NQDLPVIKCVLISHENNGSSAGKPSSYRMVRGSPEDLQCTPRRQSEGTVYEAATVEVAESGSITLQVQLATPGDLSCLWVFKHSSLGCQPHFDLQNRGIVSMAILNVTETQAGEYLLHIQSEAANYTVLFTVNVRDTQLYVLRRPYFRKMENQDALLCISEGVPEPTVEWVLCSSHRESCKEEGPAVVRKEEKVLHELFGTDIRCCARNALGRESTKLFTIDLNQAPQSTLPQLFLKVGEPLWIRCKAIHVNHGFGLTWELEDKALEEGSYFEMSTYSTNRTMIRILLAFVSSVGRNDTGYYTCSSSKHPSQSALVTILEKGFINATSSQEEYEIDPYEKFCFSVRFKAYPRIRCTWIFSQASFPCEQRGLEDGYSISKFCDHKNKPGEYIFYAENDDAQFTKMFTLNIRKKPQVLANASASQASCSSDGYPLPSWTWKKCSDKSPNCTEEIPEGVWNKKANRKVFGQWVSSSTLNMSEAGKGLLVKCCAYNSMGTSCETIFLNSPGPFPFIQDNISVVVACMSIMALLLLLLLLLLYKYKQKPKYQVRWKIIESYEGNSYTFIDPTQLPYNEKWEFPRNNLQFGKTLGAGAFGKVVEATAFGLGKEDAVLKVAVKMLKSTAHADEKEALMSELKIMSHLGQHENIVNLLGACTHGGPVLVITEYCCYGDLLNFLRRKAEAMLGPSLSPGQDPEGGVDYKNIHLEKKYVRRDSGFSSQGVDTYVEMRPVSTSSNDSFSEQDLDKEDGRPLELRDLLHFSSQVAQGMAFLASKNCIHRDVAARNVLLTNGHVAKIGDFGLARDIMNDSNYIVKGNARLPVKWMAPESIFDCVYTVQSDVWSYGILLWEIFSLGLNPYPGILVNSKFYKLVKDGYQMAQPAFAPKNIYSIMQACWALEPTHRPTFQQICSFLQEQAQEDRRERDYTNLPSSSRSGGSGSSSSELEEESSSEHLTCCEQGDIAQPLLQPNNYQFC
Description: A biological screening assay to search for novel stimulators of the Flt3 receptor was developed using NIH 3T3 cells transfected with expression vectors containing cDNA of murine and human Flt3 and the related Fms receptor. The mFlt3/Fms 3T3 cell line is a 3T3 cell line transfected with nucleic acid encoding a fusion protein consisting of the murine extracellular domain of the Flt3 receptor fused to the transmembrane and intracellular domains of the human Fms (provided by Dr. Ihor Lemischka, Princeton University, Princeton, N.J.). The Stk 3T3 cell line is a 3T3 cell line transfected with the full-length human Flt3 receptor (provided by Dr. Donald Small, Johns Hopkins University, Baltimore, Md.). The human FMS 3T3 cell line is a 3T3 cell line transfected with the full-length human Fms receptor (provided by Dr. Charles Sherr, Saint Jude Children's Research Hospital, Memphis, Tenn. Parent 3T3 cells were purchased from American Type Culture Collection (“ATCC”; Manassas, Va.). Receptor-transfected cells contained Neo resistance genes and were maintained in medium containing 750 µg/ml of G418 (Life Technologies, Rockville, Md.).
To create factor-dependence for receptor-transfected 3T3 cells, growth conditions were compromised to permit only ligands to rescue cells from death. To do this, 3T3 cell lines were assayed in 96 well plates (Becton Dickinson Labware, Lincoln Park, N.J.) containing 3,000 cells in 100 μL of serum-free medium consisting of 10% AIMV (Life Technologies) and 90% DMEM. In each experiment, samples were serially diluted two-fold across rows starting at a 1:10 dilution. Viable cells were quantitated after 3-5 days by XTT (2,3-bis[Methoxy-4-nitro-5sulfophenyl]-2H-tetrazolium-5 carboxanilide inner salt) (Sigma, St. Louis, Mo.) (Roehm et al., supra). Relative activity (units/ml) and specific activity (units/mg) are defined as the reciprocal dilution at which half-maximal stimulation of cells was detected.

[4] = target: T3, full-length human Fms receptor (Homo sapiens, UniProt P07333); experiment: Fms 3T3 biological screening assay (XTT); type: cell-based
T3 construct: The human FMS 3T3 cell line is a 3T3 cell line transfected with the full-length human Fms receptor; expressed in transfected cells; host or cells: NIH 3T3 (FMS 3T3 cell line, provided by Dr. Charles Sherr)
Description: A biological screening assay to search for novel stimulators of the Flt3 receptor was developed using NIH 3T3 cells transfected with expression vectors containing cDNA of murine and human Flt3 and the related Fms receptor. The mFlt3/Fms 3T3 cell line is a 3T3 cell line transfected with nucleic acid encoding a fusion protein consisting of the murine extracellular domain of the Flt3 receptor fused to the transmembrane and intracellular domains of the human Fms (provided by Dr. Ihor Lemischka, Princeton University, Princeton, N.J.). The Stk 3T3 cell line is a 3T3 cell line transfected with the full-length human Flt3 receptor (provided by Dr. Donald Small, Johns Hopkins University, Baltimore, Md.). […]
To create factor-dependence for receptor-transfected 3T3 cells, growth conditions were compromised to permit only ligands to rescue cells from death. […] Viable cells were quantitated after 3-5 days by XTT (2,3-bis[Methoxy-4-nitro-5sulfophenyl]-2H-tetrazolium-5 carboxanilide inner salt) (Sigma, St. Louis, Mo.) (Roehm et al., supra). Relative activity (units/ml) and specific activity (units/mg) are defined as the reciprocal dilution at which half-maximal stimulation of cells was detected. […]

untransfected 3T3 cells = experiment: untransfected parent 3T3 control cells (XTT); type: cell-based; conditions: Example 5 serum-free conditions
Protocol: Specifically, 3T3 cells cultured in tissue culture plates (Becton Dickinson Labware, Lincoln Park, N.J.) were removed from the plates by washing cells twice in Hank's buffered saline solution (HBSS; Gibco Laboratories, Grand Island, N.Y.). Non-enzymatic cell dissociation buffer (Gibco) was added for 15 minutes at room temperature. The resulting cells were washed in medium. FLT3 3T3 cells were cultured at a final concentration of 3,000 cells per well in a volume of 100 μL of serum-defined medium containing […] rhIL1-α, 10% AIMV (Gibco, Grand Island, N.Y.) and 90% Dulbecco's modification of Eagle's medium (DMEM; Gibco) in 96 well plates. […] Proliferation and cell survival was quantitated by addition of XTT (2, 3-bis[Methoxy-4-nitro-5sulfophenyl]-2H-tetrazolium-5 carboxanilide inner salt) (Diagnostic Chemicals Ltd, Charlottetown, Prince Edward Island, Canada), which is a […] cleaved by actively respiring cells (Roehm et al., J. Immunol. Methods 142: 257-265, 1991). Proliferation and cell survival was quantitated spectrophotometrically using a Vmax kinetic plate reader (Molecular Devices Corp., Mountain View, Calif.), and recorded as either relative activity (units/mL) or as specific activity (units/mg). One unit of biological activity was defined as the reciprocal dilution at which half-maximal stimulation of cells is detected. […]

T3 sequence (P07333 20-972): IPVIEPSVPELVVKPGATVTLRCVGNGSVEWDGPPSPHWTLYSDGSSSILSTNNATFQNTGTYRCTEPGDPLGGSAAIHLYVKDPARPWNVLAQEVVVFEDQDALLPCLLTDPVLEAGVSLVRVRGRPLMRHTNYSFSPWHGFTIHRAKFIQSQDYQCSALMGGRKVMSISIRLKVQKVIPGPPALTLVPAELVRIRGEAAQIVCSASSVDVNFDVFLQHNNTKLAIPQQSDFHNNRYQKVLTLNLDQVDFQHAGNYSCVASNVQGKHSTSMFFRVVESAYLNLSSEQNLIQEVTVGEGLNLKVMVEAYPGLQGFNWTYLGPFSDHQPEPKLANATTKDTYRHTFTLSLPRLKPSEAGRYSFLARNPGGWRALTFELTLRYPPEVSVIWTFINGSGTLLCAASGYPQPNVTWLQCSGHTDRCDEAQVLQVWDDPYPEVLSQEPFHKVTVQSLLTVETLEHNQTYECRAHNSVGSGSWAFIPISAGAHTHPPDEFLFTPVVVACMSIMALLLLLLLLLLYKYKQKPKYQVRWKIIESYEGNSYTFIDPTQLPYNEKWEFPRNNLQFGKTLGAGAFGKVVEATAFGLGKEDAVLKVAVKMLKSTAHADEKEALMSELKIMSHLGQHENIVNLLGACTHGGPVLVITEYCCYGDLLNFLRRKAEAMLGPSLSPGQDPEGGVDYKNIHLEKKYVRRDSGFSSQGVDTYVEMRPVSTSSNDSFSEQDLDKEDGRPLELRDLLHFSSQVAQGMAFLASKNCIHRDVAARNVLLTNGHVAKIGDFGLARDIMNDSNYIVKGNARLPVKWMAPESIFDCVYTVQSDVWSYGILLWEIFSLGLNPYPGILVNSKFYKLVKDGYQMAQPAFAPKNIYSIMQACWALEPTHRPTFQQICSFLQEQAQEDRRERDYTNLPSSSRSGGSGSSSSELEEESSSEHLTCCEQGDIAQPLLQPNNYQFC

For `O=c1[nH]cc(F)c(=O)[nH]1` [5-FU, 5-fluorouracil], the “reduction of bone marrow cellularity” value [1] is given as greater than 90% and the “deaths from a single dose” value [2] is given as “No mice died”.

In the case of `OC[C@H]1O[C@H](O[C@H]2O[C@H](CO)[C@@H](O)[C@H](O)[C@H]2O)[C@H](O)[C@@H](O)[C@@H]1O` [α,α-trehalose], the “potency relative to mannose” value (Dl-FRIL) is given as 3.6 fold.

B1: M-CSF: Recombinant human M-CSF, ligand of the Fms receptor (protein)
chain: EEVSEYCSHMIGSGHLQSLQRLIDSQMETSCQITFEFVDQEQLKDPVCYLKKAFLLVQDIMEDTMRFRDNTPNAIAIVQLQELSLRLKSCFTKDYEEHDKACVRTFYETPLQLLEKVKNVFNETKNLLDKDWNIFSKNCNNSFAECSSQDVVTKPDCN
For B1, the “response of mFlt3/Fms 3T3 cells” value [3] was “Neither the mFlt3/Fms 3T3 cells nor the parent untransfected 3T3 cells responded”, the “response of Fms 3T3 cells” value [4] was “responded to M-CSF in a dose-responsive manner” and the “response of parent untransfected 3T3 cells” value (untransfected 3T3 cells) was “Neither the mFlt3/Fms 3T3 cells nor the parent untransfected 3T3 cells responded”.
